According to patent US20250091994A1, “RAS/RAF BINDING INHIBITOR COMPOUND” (NATIONAL UNIVERSITY CORPORATION KOBE UNIVERSITY, priority 2021, published 2025):
Values belong to the compound of their own block, whether it stands above or below them.

Columns and labels:
[1] = molecular target: GTPγS-bound human HRasG12V / human c-Raf-1 Ras binding domain (RBD) (Homo sapiens (Human), UniProt P01112, G12V); test: Ras-Raf binding inhibition ELISA; settings: for IC50: anti-HRas antibody C-20, read-out: ELISA IC50 (μM): 1st Ab_C-20
Procedure, shortened: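 GST-c-Raf-1 RBD (aa 50-131) immobilized on glutathione plates, then GTPγS-loaded full-length HRasG12V added with compound (final 10% DMSO), 1 h at 30 °C, pH 7.4 Tris buffer. Bound Ras detected by anti-HRas antibody (C-20 or 259) and HRP secondary, TMB read at OD450; IC50 from inhibition.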

[2] = test system: acute lymphoblastic leukemia cells CCRF-CEM (K-RasG12D); test: Cell growth inhibition, suspension cells CCRF-CEM; format: cell-based; settings: Homo sapiens, 72 hours; for inhibition at 1 µM: read-out: CCRF-CEM (KRasG12D) % inhibition at 1 μM; for inhibition at 3.2 µM: read-out: CCRF-CEM (KRasG12D) % inhibition at 3.2 μM (***)
Protocol: (§1) The cell growth inhibitory activity of the compound of the present invention on human culture cells having active-type mutation in Ras was evaluated by the below-mentioned method using suspension cancer cells {acute lymphoblastic leukemia cells CCRF-CEM (K-RasG12D), promyelocytic leukemia cells HL60 (N-RasQ61L), acute lymphoblastic leukemia cells MOLT4 (N-RasG12C), and small cell lung cancer cells SHP77 (K-RasG12V)} and adherent cancer cells {large bowel cancer cells SW480 (K-RasG12V) and large bowel cancer cell SW620 (K-RasG12V)}.
(§2) (Case of suspension cells) The cells suspended in a medium containing 0.5% (v/v) fetal bovine serum (FBS) and each compound solution (final DMSO concentration: 1%) were seeded on a 96-well plate (2 to 4×10^4 cells/well), and the resulting mixture was then cultured at 37° C. in the presence of 5% CO2 for 72 hours.
(§3) Thereafter, the number of viable cells was measured using Cell Counting Reagent (Nacalai Tesque) in accordance with the manufacturer's instructions. Inhibition by the test compound was determined according to the following equation: […]

[3] = test system: acute lymphoblastic leukemia cells MOLT4 (N-RasG12C); test: Cell growth inhibition, suspension cells MOLT4; format: cell-based; settings: Homo sapiens, MOLT-4, 72 hours; for inhibition at 10 µM: read-out: MOLT-4 (NRasG12C) % inhibition at 10 μM (**); for inhibition at 3.2 µM: read-out: MOLT-4 (NRasG12C) % inhibition at 3.2 μM (***)
Protocol: as §1, §2, §3

[4] = test system: promyelocytic leukemia cells HL60 (N-RasQ61L); test: Cell growth inhibition, suspension cells HL60; format: cell-based; settings: Homo sapiens, HL-60, 72 hours; for inhibition at 1 µM: read-out: HL-60 (NRasQ61L) % inhibition at 1 μM; for inhibition at 10 µM: read-out: HL-60 (NRasQ61L) % inhibition at 10 μM (***); for inhibition at 3.2 µM: read-out: HL-60 (NRasQ61L) % inhibition at 3.2 μM (****)
Procedure, shortened: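 Suspension cells, 2 to 4×10^4 per well, cultured with compound in medium with 0.5% FBS (1% DMSO final) for 72 h at 37° C, 5% CO2. Viable cells counted with Cell Counting Reagent; inhibition calculated relative to controls.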

[5] = test system: phosphorylated MEK (pMEK) in HL60 cells; test: Ras-Raf signaling inhibition at culture cell level, pMEK; format: cell-based; settings: Homo sapiens, HL-60; HL60 (N-RasQ61L), 1 μM test compound, 3 hours
Protocol: (§4) The Ras-Raf signaling inhibitory activity of the compound of the present invention at a culture cell level was evaluated by the following method.
(§5) The HL60 cells described in Test Example 2 suspended in a medium containing 0.5% (v/v) FBS with each compound solution (final DMSO concentration: 1%), were seeded on a 12-well plate (2 to 4×10^5 cells/well), and the resulting mixture was then cultured at 37° C. in the presence of 5% CO2 for 3 hours.
(§6) After completion of the cell culture, proteins were extracted from the cells, using RIPA Buffer (Nacalai Tesque) containing a mixture of protease inhibitors and phosphatase inhibitors. An equivalent amount of protein was separated by standard SDS-PAGE and was then transferred onto a PVDF membrane. In order to detect the activation (phosphorylation) of MEK and ERK, downstream molecules of the Ras-Raf signaling pathway, the membrane was probed with 1000-fold diluted primary antibodies {phosphorylated MEK (pMEK: #9121), phosphorylated ERK (pERK: #9101), total MEK (tMEK: #9122), and total ERK (tERK: 9102); all from Cell signaling}, and then with a 1000-fold diluted horseradish peroxidase-labeled secondary antibody against rabbit immunoglobulin G. The immunoreactive signals were colored with EzWestLumi One (ATTO), and were then detected by Fusion FX (Vilber). Signal intensity was quantified by pixel counting. Inhibition by the test compound was determined according to the following equation: […]

[6] = test system: phosphorylated ERK (pERK) in HL60 cells; test: Ras-Raf signaling inhibition at culture cell level, pERK; format: cell-based; settings: Homo sapiens, HL-60; HL60 (N-RasQ61L), 1 μM test compound, 3 hours
Protocol: as §4, §5, §6

[7] = test system: small cell lung cancer cells SHP77 (K-RasG12V); test: Cell growth inhibition, suspension cells SHP77; format: cell-based; settings: Homo sapiens, 3.3 μM (*), 72 hours, read-out: SHP77 (KRasG12V) % inhibition at 3.3 μM (*)
Protocol: as §1, §2, §3

[8] = test system: large bowel cancer cells SW480 (K-RasG12V); test: Cell growth inhibition, adherent cells SW480; format: cell-based; settings: Homo sapiens, 72 hours, read-out: SW480 (KRasG12V) % inhibition at 10 μM
Protocol: as §1
(Case of adherent cells) The cells suspended in a medium containing 10% FBS (1 to 2×10^4 cells/well) were seeded on a 96-well plate, and were then cultured at 37° C. in the presence of […]. Thereafter, the medium was exchanged with a medium containing […], to which each compound solution (final DMSO concentration: […]) had been added, and the cells were then cultured at 37° C. in the presence of […] for 72 hours.
as §3

[9] = test system: large bowel cancer cell SW620 (K-RasG12V); test: Cell growth inhibition, adherent cells SW620; format: cell-based; settings: Homo sapiens, SW-620, 72 hours; for inhibition at 3.2 µM: read-out: SW620 (KRasG12V) % inhibition at 3.2 μM (***)
Procedure, shortened: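 Adherent cells, 1 to 2×10^4 per well, grown overnight in 10% FBS, then exposed to compound in low-serum medium […] for 72 h at 37° C. Viable cells counted with Cell Counting Reagent; inhibition calculated relative to controls.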

Sequence of GTPγS-bound human HRasG12V / human c-Raf-1 Ras binding domain (RBD) (P01112 whole entry G12V, the tested form may be a part): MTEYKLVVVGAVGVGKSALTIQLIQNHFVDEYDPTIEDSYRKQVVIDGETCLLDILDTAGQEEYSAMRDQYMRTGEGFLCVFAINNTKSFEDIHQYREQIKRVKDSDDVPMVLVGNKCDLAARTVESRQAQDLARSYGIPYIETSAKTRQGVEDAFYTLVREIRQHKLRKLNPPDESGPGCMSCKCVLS

IC50 [1]: 5.8 µM
SMILES: CC(=O)N1C(=Cc2cc(F)c(OCC(=O)N3CCOCC3)c(F)c2)C(=O)c2ccccc21 (racemic) [Example 19, 1-acetyl-2-(3,5-difluoro-4-(2-morpholino-2-oxoethoxy)-benzylidene)-indolin-3-one]
inhibition at 1 µM [2]: 83% | inhibition at 10 µM [3]: 100%

inhibition at 10 µM [1]: 54%
SMILES: COCCOc1ccc(/C=C2/C(=O)c3ccccc3N2C(C)=O)cc1OC [Example 11, 1-acetyl-2-(3-methoxy-4-(2-methoxyethoxy)-benzylidene)-indolin-3-one]
inhibition at 1 µM [2]: 55% | inhibition at 10 µM [3]: 100%

IC50 [1]: 2.4 µM
SMILES: CC(=O)N1/C(=C\c2cc(CN3CCOCC3)c3ccccc3n2)C(=O)c2ccccc21 [Example 181, (Z)-1-acetyl-2-((4-(morpholinometh-yl)quinolin-2-yl)-methylene)indolin-3-one]
inhibition at 3.2 µM [2]: 98.2% | inhibition at 3.2 µM [4]: 96.7% | inhibition at 3.2 µM [3]: 96.3% | inhibition at 3.2 µM [9]: 74.3%

inhibition at 1 µM [1]: 46.7% | IC50 [1]: 1.3 µM
SMILES: CC(=O)N1/C(=C\c2cc(CNC3CCOCC3)c3ccccc3n2)C(=O)c2ccccc21 [Example 208, (Z)-1-acetyl-2-((4-(((tetrahydro-2H-pyran-4-yl)-amino)methyl)-quinolin-2-yl)-methylene)indolin-3-one]
inhibition at 3.2 µM [2]: 97% | inhibition at 3.2 µM [4]: 95.1% | inhibition at 3.2 µM [3]: 96.2% | inhibition at 3.2 µM [9]: 81.1%

inhibition at 1 µM [1]: 71.2%
SMILES: CC(=O)N1CCc2cc(-c3cc(/C=C4/C(=O)c5ccccc5N4C(C)=O)nc4ccc(CNC5CCOCC5)cc34)ccc2C1 [Example 209, (Z)-1-acetyl-2-((4-(2-acetyl-1,2,3,4-tetrahydro-isoquinolin-6-yl)-6-(((tetrahydro-2H-pyran-4-yl)-amino)methyl)-quinolin-2-yl)-methylene)indolin-3-one]
inhibition at 3.2 µM [2]: 97.8% | inhibition at 3.2 µM [4]: 96.7% | inhibition at 3.2 µM [3]: 96.7% | inhibition at 3.2 µM [9]: 94.4%

inhibition at 1 µM [1]: 66.9% | IC50 [1]: 0.6 µM
SMILES: CC(=O)N1/C(=C\c2cc(-c3cccc(-c4cnn(C)c4)c3)c3cc(CNC4CCOCC4)ccc3n2)C(=O)c2ccccc21 [Example 210, (Z)-1-acetyl-2-((4-(3-(1-methyl-1H-pyrazol-4-yl)-phenyl)-6-(((tetra-hydro-2H-pyran-4-yl)amino)meth-yl)quinolin-2-yl)-methylene)indolin-3-one]
inhibition at 3.2 µM [2]: 97.5% | inhibition at 3.2 µM [4]: 97.3% | inhibition at 3.2 µM [3]: 96.2% | inhibition at 3.2 µM [9]: 78%

Second part, the compound before the results:

SMILES: CC(=O)N1C(=Cc2ccc(OCC(=O)N3CCOCC3)c(F)c2)C(=O)c2ccccc21 (racemic) [Example 16, 1-acetyl-2-(3-fluoro-4-(2-morpholino-2-oxoethoxy)-benzylidene)-indolin-3-one]
IC50 [1]: 7.6 µM | inhibition at 1 µM [2]: 56% | inhibition at 10 µM [3]: 100%

SMILES: COc1cc(/C=C2/C(=O)c3ccccc3N2C(C)=O)ccc1OS(C)(=O)=O [Example 21, 4-((1-acetyl-3-oxoindolin-2-ylidene)methyl)-2-methoxyphenyl methanesulfonate]
inhibition at 1 µM [2]: 97% | inhibition at 1 µM [4]: 43% | inhibition at 3.3 µM ([3]; 3.3 μM (*), read-out: MOLT-4 (NRasG12C) % inhibition at 3.3 μM (*)): 100%

SMILES: CC(=O)N1/C(=C/c2nc3cc(C(=O)N4CCOCC4)ccc3s2)C(=O)c2ccccc21 [Example 48, (E)-1-acetyl-2-((5-(morpholine-4-carbonyl)benzo [d]thiazol-2-yl)-methylene)indolin-3-one]
inhibition at 1 µM [2]: 69% | inhibition at 10 µM [4]: 100% | inhibition at 1 µM [5]: 81% | inhibition at 1 µM [6]: 96%

SMILES: CC(=O)N1/C(=C/c2nc3ccc(C(=O)N4CCOCC4)cc3s2)C(=O)c2ccccc21 [Example 58, (E)-1-acetyl-2-((6-(morpholine-4-carbonyl)benzo [d]thiazol-2-yl)-methylene)indolin-3-one]
inhibition at 1 µM [2]: 45% | inhibition at 10 µM [4]: 99% | inhibition at 1 µM [5]: 72% | inhibition at 1 µM [6]: 100%

SMILES: CC(=O)N1/C(=C/c2ncc(C(=O)N3CCOCC3)s2)C(=O)c2ccccc21 [Example 68, (E)-1-acetyl-2-((5-(morpholine-4-carbonyl)thiazol-2-yl)methylene)-indolin-3-one]
inhibition at 3.3 µM ([2]; 3.3 μM (*), read-out: CCRF-CEM (KRasG12D) % inhibition at 3.3 μM(*)): 80% | inhibition at 1 µM [4]: 37% | inhibition at 3.3 µM [7]: 67% | inhibition at 10 µM [8]: 52% | inhibition at 1 µM [5]: 68% | inhibition at 1 µM [6]: 93%

SMILES: CCCCOc1cc(/C=C2/C(=O)c3ccccc3N2C(C)=O)nc2ccc(C(=O)N3CCOCC3)cc12 [Example 84, (Z)-1-acetyl-2-((4-butoxy-6-(morpholine-4-carbonyl)quinolin-2-yl)methylene)-indolin-3-one]
inhibition at 1 µM [4]: 96% | inhibition at 1 µM ([9]; 1 μM, read-out: SW620 (KRasG12V) % inhibition at 1 μM): 90% | inhibition at 1 µM [5]: 58% | inhibition at 1 µM [6]: 63%
